Measurements: PMC7832312, “Enhancing the Physiochemical Properties of Puerarin via L-Proline Co-Crystallization: Synthesis, Characterization, and Dissolution Studies of Two Phases of Pharmaceutical Co-Crystals” (International Journal of Molecular Sciences, 2021)
Values after ≈ are worked out from the molar mass of the structure shown.

Legend:
[1] = Solubility measurement (UV, oversaturated solution stirred 24 h at 37 °C); type: physicochemical; details: thermodynamic from solid, average of three replicates
Description: The concentration was calculated utilizing a standard curve, which was made by measuring the absorbance of different concentrations at their λmax. A superfluity sum of the sample was added to 10 mL of H2O medium, pH 1.2 and pH 6.8 phosphate, respectively.
(§1) The oversaturated solution was stirred at 500 RPM by magnetic stirring at 37 °C for 24 h and the suspension was filtered through Whatman’s […] syringe channel, diluted sufficiently and the absorbance was measured at their λmax. For the dissolution rate, the sample was specifically poured into 250 mL pH 7.0 water, pH 1.2 gastrointestinal tract, and pH 6.8 phosphates medium and then stirred at 150 RPM for 2h at 37 °C. Each solution was measured by the absorbance at λmax. At customary interims, the solution was replenished with 3 mL of the respective blank solution to maintain an overall steady volume.

[2] = Dissolution rate measurement (UV, 250 mL medium, 150 RPM, 2 h, 37 °C); type: physicochemical; details: 37 °C
Description: The solubility and dissolution studies of pure PUE, I, and II were measured using a Thermo Scientific Evolution 300 UV spectrometer in deionized water at pH 7.0, gastrointestinal tract at pH 1.2, and phosphate buffer at pH 6.8 solution at 37 °C. The concentration was calculated utilizing a standard curve, which was made by measuring the absorbance of different concentrations at their λmax. A superfluity sum of the sample was added to 10 mL of H2O medium, pH 1.2 and pH 6.8 phosphate, respectively.
as §1

[3] = cited from earlier work
HEK-293 cell lines = experiment: Cytotoxicity evaluation by MTT assay, HEK-293; type: cell-based, human; details: HEK-293, culturing 24 h
Description: (§2) CT-26 and HEK-293 cell line was purchased from American Type Culture Collection (Manassas, VA, USA). The cell lines were cultured in RPMI 1640 (for CT-26) or DMEM (for HEK-293) containing 10% fetal bovine serum (FBS, Zhejiang Tianhang Biotechnology Co. Ltd., Hangzhou, China) and 1% penicillin/streptomycin (Zhejiang Tianhang Biotechnology Co. Ltd., Hangzhou, China). Cells grew as a monolayer and were detached upon confluence using trypsin (0.5% w/v in PBS, Zhejiang Tianhang Biotechnology Co. Ltd., Hangzhou, China). The cells were harvested from the cell culture medium by incubating in trypsin solution for 3 min. The cells were centrifuged, and the supernatant discarded. A 3 mL portion of serum-supplemented cell culture medium was added to neutralize any residual trypsin. The cells were re-suspended in serum-supplemented RPMI 1640 (for CT-26) or DMEM (for HEK-293) at a concentration of 5 × 10^4 cells per 1 mL. Cells were cultured at 37 °C and 5% CO2 for MTT studies.
(§3) The CT-26 or HEK-293 cells were seeded at a density of 1 × 10^4 cells per well in 100 µL of complete RPMI 1640 (CT-26) or DMEM (for HEK-293), and cultured for 16 h for attachment. The culture medium was then replaced by a serum-free medium containing various concentrations of pristine PUE, I, and II. […] After incubating the cells at 37 °C for 4 h, the MTT solution was removed and DMSO (100 μL) added to dissolve the formazan crystals formed, and the microplates were agitated for 5 min at a medium rate before the spectrophotometric measurement at a wavelength of 570 nm on a microplate reader. […] The relative cell viability (%) related to control cells was calculated by the formula below: V%=[A]experimental−[A]blank/[A]control−[A]blank×100% where V% is the percentage of cell viability, [A]experimental is the absorbance of the wells culturing the treated cells, [A]blank is the absorbance of the blank, and [A]control is the absorbance of the wells culturing untreated cells.

CT-26 cancer cell lines = experiment: Cytotoxicity evaluation by MTT assay, CT-26; type: cell-based, murine; details: CT-26, culturing 24 h
Description: as §2, §3

O=c1c(-c2ccc(O)cc2)coc2c([C@@H]3O[C@H](CO)[C@@H](O)[C@H](O)[C@H]3O)c(O)ccc12 [PUE, Puerarin]
solubility at 24 h ([1]; aqueous buffer, phosphate buffer at pH 6.8, 37 °C): 2490 µg/mL (≈ 5.97 mM)
solubility at 24 h ([1]; deionized water, Distilled Water (pH 7.0), 37 °C): 2530 µg/mL (≈ 6.07 mM)
solubility at 24 h ([1]; gastrointestinal tract medium pH 1.2, simulated gastric fluid, gastrointestinal tract at pH 1.2, 37 °C): 1510 µg/mL (≈ 3.63 mM)
Time-dependent dissolution rate ([2]; Water, 5 min): 0.062 mg/mL
Time-dependent dissolution rate ([2]; Water, 10 min): 0.109 mg/mL
Time-dependent dissolution rate ([2]; Water, 15 min): 0.190 mg/mL
Time-dependent dissolution rate ([2]; Water, 20 min): 0.250 mg/mL
Time-dependent dissolution rate ([2]; Water, 25 min): 0.294 mg/mL
Time-dependent dissolution rate ([2]; Water, 30 min): 0.506 mg/mL
Time-dependent dissolution rate ([2]; Water, 40 min): 0.611 mg/mL
Time-dependent dissolution rate ([2]; Water, 50 min): 0.692 mg/mL
Time-dependent dissolution rate ([2]; Water, 60 min): 0.821 mg/mL
Time-dependent dissolution rate ([2]; Water, 80 min): 0.896 mg/mL
Time-dependent dissolution rate ([2]; Water, 100 min): 0.935 mg/mL
Time-dependent dissolution rate ([2]; Water, 120 min): 1.031 mg/mL
Time-dependent dissolution rate ([2]; pH 1.2, 5 min): 0.008 mg/mL
Time-dependent dissolution rate ([2]; pH 1.2, 10 min): 0.019 mg/mL
Time-dependent dissolution rate ([2]; pH 1.2, 15 min): 0.023 mg/mL
Time-dependent dissolution rate ([2]; pH 1.2, 20 min): 0.030 mg/mL
Time-dependent dissolution rate ([2]; pH 1.2, 25 min): 0.035 mg/mL
Time-dependent dissolution rate ([2]; pH 1.2, 30 min): 0.043 mg/mL
Time-dependent dissolution rate ([2]; pH 1.2, 40 min): 0.163 mg/mL
Time-dependent dissolution rate ([2]; pH 1.2, 50 min): 0.354 mg/mL
Time-dependent dissolution rate ([2]; pH 1.2, 60 min): 0.394 mg/mL
Time-dependent dissolution rate ([2]; pH 1.2, 80 min): 0.435 mg/mL
Time-dependent dissolution rate ([2]; pH 1.2, 100 min): 0.568 mg/mL
Time-dependent dissolution rate ([2]; pH 1.2, 120 min): 0.685 mg/mL
Time-dependent dissolution rate ([2]; pH 6.8, 5 min): 0.078 mg/mL
Time-dependent dissolution rate ([2]; pH 6.8, 10 min): 0.110 mg/mL
Time-dependent dissolution rate ([2]; pH 6.8, 15 min): 0.168 mg/mL
Time-dependent dissolution rate ([2]; pH 6.8, 20 min): 0.244 mg/mL
Time-dependent dissolution rate ([2]; pH 6.8, 25 min): 0.274 mg/mL
Time-dependent dissolution rate ([2]; pH 6.8, 30 min): 0.347 mg/mL
Time-dependent dissolution rate ([2]; pH 6.8, 40 min): 0.415 mg/mL
Time-dependent dissolution rate ([2]; pH 6.8, 50 min): 0.444 mg/mL
Time-dependent dissolution rate ([2]; pH 6.8, 60 min): 0.504 mg/mL
Time-dependent dissolution rate ([2]; pH 6.8, 80 min): 0.560 mg/mL
Time-dependent dissolution rate ([2]; pH 6.8, 100 min): 0.641 mg/mL
Time-dependent dissolution rate ([2]; pH 6.8, 120 min): 0.785 mg/mL
elimination half-life [3]: short
oral bioavailability [3]: about 7%
cytotoxicity (MTT cell viability) (HEK-293 cell lines): negligible cytotoxicity
cytotoxicity (MTT cell viability) (CT-26 cancer cell lines): negligible cytotoxicity
